Among the data in a melting point compilation (Tetko et al.; mined from patent text by program, amines drawn as free bases though some values may be those of a salt) are melting point values, retold here.

Some results are limits rather than exact numbers.

With `CC(=O)C(=NO)C(=O)OC(C)(C)C`, the melting point (commonly the temperature, or range, at which the solid turns liquid) lay within 55 to 63 °C.

`Nc1nc2ccccc2c2c1nc1n2C(COCc2ccc(F)cc2)COC1` (configuration not stated): the melting point was in the range of 134 to 137 °C.

Compound `CCOC(=O)c1[nH]c(CC2CCC2)nc1C(F)(F)F` came in with a melting point of 136 to 138 °C.

`OCc1sc(Cl)nc1-c1ccc(Cl)cc1` gave a melting point of 113 to 114 °C.

In the case of `C=C(c1cncn1Cc1ccccc1)C(c1ccc(C)cc1)c1ccc(C)cc1`, the melting point lay within 216 to 220 °C.

In turn, `CSc1ccc(COc2cccc(C(=O)Nc3ccc(C#N)cn3)c2)cc1` registered a melting point of 146 to 147 °C.

Compound `CCOC(=O)C=Cc1ccc(OC)c2c1CC1(CCCC1)O2` came in with a melting point of 81 to 91 °C.

In the case of `O=c1c2c(O)cc(O)cc2ncn1-c1ccc(O)cc1`, the melting point was 240 to 245 °C.

`CC(O)c1c(-c2ccc(O)cc2)oc2ccc(O)cc12` (configuration not stated): the melting point lay in the range of 177 to 182 °C.

For `Cc1cc(C2=c3ccc(=C4C(=O)c5ccccc5C4=O)cc3OC2=O)cc(C)c1N`, the melting point was above 250 °C.

With `CCCC1=C(C(=O)OCC)C(c2ccoc2C)c2c[nH]nc2N1` (configuration not stated), the melting point was in the range of 123 to 125 °C.

The compound `CN(C)S(=O)(=O)c1cc(-c2csc(=Nc3ccccc3)n2C2CCCCC2)ccc1Cl` came in with a melting point of 148 °C.

Regarding `O=C(O)c1cn(C2CC2)c2c(F)c(-n3cnc(-c4ccccc4)c3)c(F)cc2c1=O`, the melting point lay in the range of 286 to 288 °C.

For `Cc1ccc(C(=O)Nc2ccc3c(c2NC(=O)c2ccc(C)cc2)C(=O)c2ccccc2C3=O)cc1`, the melting point lay in the range of 227 to 229 °C.

`CCOC(=O)c1cn(CC)c2occc2c1=O` gave a melting point of 158 to 160 °C.

In turn, `COC(=O)c1ccc(-c2ccc(OC)c3c2CC(C)(C)O3)cc1` had a melting point of 116 to 122 °C.

`O=[N+]([O-])c1cc(Cl)cc(Cc2cc(Cl)cc([N+](=O)[O-])c2O)c1O` displayed a melting point of 163 to 170 °C.

With `CCOC(=O)C(=O)Nc1c([N+](=O)[O-])sc2ccc(F)cc12`, the melting point lay within 129 to 131 °C.

In the case of `C[C@H](CN1CC(C#N)C1)NC(=O)c1c[nH]c2ncc(-c3nn(C)c4cc(Cl)ccc34)nc12`, the melting point was in the range of 235 to 238 °C.

In turn, `CCOC(=O)c1cccc(NC(=O)Oc2ccccc2)c1` gave a melting point of 138 °C.

`O=C(O)C1=Cc2cc(F)c(N3CCC4(CC3)OCCCO4)nc2N(c2ccc(F)cc2F)C1` returned a melting point of 177 to 178 °C.

For `Cc1ccccc1-c1nc(-c2cccc(Cl)c2)n[nH]1`, the melting point lay in the range of 147 to 148 °C.

Regarding `CCOC(=O)C(C)(C)OCc1cc2cc(C(F)(F)F)ccc2n1S(=O)(=O)c1ccccc1`, the melting point was 62 to 64 °C.

`CC(=O)NC[C@H]1CN(c2ccc(-c3noc(C#N)n3)c(F)c2)C(=O)O1` gave a melting point of 200 to 202 °C.

On to `COc1cc(C=C(C#N)C(N)=O)cc(OC)c1OC`, for which the melting point is 128 to 130 °C.

Compound `COc1ccc(OCCCCCN2CCC(CNC(=O)c3cc(Cl)c(N)cc3OC)CC2)cc1OC` came in with a melting point of 85 to 87 °C.

For `COC(=O)[C@@H](NC(=O)Oc1ccccc1)C(C)C`, the melting point was found to be 59.1 °C.

Regarding `CC(C)(C)OC(=O)N1CCC(C(=O)c2nc3ccccc3n2Cc2ccccc2)CC1`, the melting point stood at 122 °C.

`Cc1ccc(Oc2nsnc(Cl)c2=O)cn1` returned a melting point of 155 to 156 °C.

As for `O=C(CCCN1CCC(Cc2ccccc2)CC1)c1ccc2c(c1)C(=O)c1cc(C(=O)CCCN3CCC(Cc4ccccc4)CC3)ccc1-2`, the melting point was 141 to 143 °C.

In the case of `N[C@@H]1Cc2c(Br)ccc3c2[C@@H](C1)CN3C(=O)c1ccccc1`, the melting point lay in the range of 169 to 173 °C.

Consider `C[Si](C)(C)c1ccc2c(c1)Cc1cc([Si](C)(C)C)ccc1-2`, for which the melting point fell in the range of 117 to 118 °C.

In turn, `CN1CCC2(CC=C(c3cc4ccccc4s3)CC2)CC1` registered a melting point of 89.7 to 91.2 °C.

Compound `CCOC(=O)CC(C)N=c1sc2ccc(Cl)cc2s1` (configuration not stated) yielded a melting point of 60 to 61 °C.

On to `CN(C)CCCOc1ccc(-c2nnc(CSCCOc3ccccc3)o2)nc1`, for which the melting point fell in the range of 47 to 49 °C.

In turn, `COc1cc2c(cc1OCCCN1CCC(c3noc4cc(F)ccc34)CC1)CCCC2=O` registered a melting point of 129 to 131 °C.

In turn, `CCCCNC(=O)ON1C(C)(C)CC(OC(=O)C(CC)(CC)C(=O)OC2CC(C)(C)N(OC(=O)NCCCC)C(C)(C)C2)CC1(C)C` had a melting point of 166 to 169 °C.

Compound `O=C(c1ccc(C(=O)c2ccc(F)c([N+](=O)[O-])c2)cc1)c1ccc(F)c([N+](=O)[O-])c1` gave a melting point of 221 to 223 °C.

`COc1ccc(CCNC(=O)C(N)=O)cc1OCCCCO` had a melting point of 47 to 49 °C.

`Cc1ccc(C=CC(C#N)=NOS(C)(=O)=O)cc1` registered a melting point of 134 to 135 °C.

In the case of `CC(OCc1cccnc1)C(=O)Nc1ccc(C(=O)Nc2ccccc2N)cc1` (configuration not stated), the melting point is 144 to 148 °C.

In the case of `O=C1CC(c2ccc(Cl)cc2Cl)c2cc(Br)ccc2O1` (configuration not stated), the melting point fell in the range of 117 to 118 °C.

`NC(C=CP(=O)(O)O)(CO)CCc1ccc(Sc2cccc(OCc3ccccc3)c2)cc1Cl` (configuration not stated) registered a melting point of 245 to 248 °C.

Compound `CC(C)[C@H](N)C(=O)NC(Cc1ccccc1)C(O)C(Cc1ccccc1)NC(=O)[C@@H](NC(=O)OCc1ccccc1)C(C)C` (some centres not stated) showed a melting point of 126 to 127 °C.

For `N#Cc1ccc2nc(C(F)(F)F)[nH]c2c1`, the melting point is 194 to 196 °C.

In turn, `COc1cc2ccc(CC(=O)Cl)cc2cc1OC` showed a melting point of 51 to 62 °C.

The compound `CC(C)(C)c1ccc(C2(C)CC(=Cc3ccccc3)CC2=O)cc1` (configuration not stated) had a melting point of 140 to 143 °C.

As to `Clc1ccc(C2CNCCN2)cc1Cl` (configuration not stated), the melting point lay within 74 to 76 °C.

`Cc1nnc2ccc(-c3ccc(N)c(C(F)(F)F)c3)nn12`: the melting point lay within 240 to 242 °C.

In the case of `O=[N+]([O-])c1nccn1CC(O)CN1C2CCCCCCC21` (configuration not stated), the melting point lay in the range of 120 to 122 °C.

Regarding `NC(=NCC(F)(F)F)Nc1cncc(Cl)n1`, the melting point lay within 139 to 140 °C.

With `CCCCCCOc1ccc(-c2ccc(OCCCCCCBr)cc2)cc1`, the melting point fell in the range of 103 to 105 °C.

Regarding `CCCc1nc(SCCCCC(=O)O)c(C(=O)O)n1Cc1cc2c(cc1Cl)OCO2`, the melting point is 156 °C.

`O=C1OCCN1CCn1ccnc1[N+](=O)[O-]` yielded a melting point of 103 to 104 °C.

Turning to `COc1ccc2[nH]c(C(=O)c3ccc(Cl)cc3)c(CC(=O)O)c2c1`, the melting point lay in the range of 200 to 204 °C.

Compound `Cc1cc2c(c(C)c1NCc1ccccc1)C(c1ccc(C(C)C)cc1)CO2` (configuration not stated) had a melting point of 82 to 83 °C.

With `CN1CCC2(CC1)OC(c1ccccc1)c1cc(O)ccc12` (configuration not stated), the melting point lay in the range of 193 to 200 °C.

Regarding `CCOC(=O)C1=C(C)NC(C)=C(C(=O)OC(C)C)C1c1csc2ccncc12` (configuration not stated), the melting point is 212 to 215 °C.

The compound `CN(Cc1ccccc1)C(=O)Cn1c(-c2ccc(Cl)cc2)nc2cccnc21` returned a melting point of 87 to 89 °C.

Turning to `CN(CCO)C(=O)c1cc2ccccc2[nH]1`, the melting point lay in the range of 141 to 142 °C.

`CN(C)C(=S)SC(C[N+](=O)[O-])c1ccc(Br)cc1` (configuration not stated) registered a melting point of 79 to 81 °C.

The compound `CS(=O)(=O)Nc1cc2occc(=O)c2cc1Oc1ccc(F)cc1F` displayed a melting point of 182 to 183 °C.

In turn, `COc1cn(-c2ccc(-c3cnn(C(F)F)c3)cc2F)nc(-c2ccnn2-c2ccccc2)c1=O` registered a melting point of 185 to 187 °C.

The compound `Nc1nc(F)cc(Oc2ccc(Cl)cc2)n1` yielded a melting point of 223 to 226 °C.

On to `OCC#Cc1cnc(Cl)nc1NC1CCCC1`, for which the melting point lay in the range of 162 to 163 °C.

`Cc1c(-c2ccccn2)c(N2CC[C@H](N(C)C)C2)c2oc(C3CC3)nc2c1C#N` showed a melting point of 150 to 151 °C.

For `Cn1c(COc2ccc(CC3SC(=O)N(C(c4ccccc4)(c4ccccc4)c4ccccc4)C3=O)cc2)cc2ccccc21` (configuration not stated), the melting point is 134 to 136 °C.

The compound `O=C(O)CCCOc1cccc(CCNC(=O)C2Cc3ccccc3N2S(=O)(=O)c2ccc(-c3cccc(C(F)(F)F)c3)cc2)c1` (configuration not stated) gave a melting point of 70 °C.

On to `Cc1cccc(-c2ccccc2C(=O)NCCc2ccccc2)c1N1C(=O)c2ccccc2C1=O`, for which the melting point worked out at 156 °C.

Take `CC(=O)c1cc(Oc2ncccc2C(=O)NC[C@H]2CC[C@H](C(C)(C)O)CC2)ccc1Cl`: the melting point lay within 106 to 108 °C.

Consider `Nc1cc2c(c(C(=O)O)c1)CCCC2`, for which the melting point lay in the range of 178 to 180 °C.

`CCCC(=Cc1cccc([N+](=O)[O-])c1)[N+](=O)[O-]`: the melting point lay in the range of 45 to 47 °C.

Take `COc1nc(C)c(C)nc1N(C)C(=O)N1CCN(c2cc(F)cc(F)c2)CC1`: the melting point was in the range of 104 to 106 °C.

Compound `Cc1c(-c2ccccc2)n(-c2c(F)cccc2F)c(-c2ccccc2)cc1=O` displayed a melting point of 219 to 221 °C.

In turn, `CCN[C@@H]1CCCC[C@H]1NS(=O)(=O)c1ccc(C)cc1` (relative stereo) gave a melting point of 112 to 114 °C.

`CC(C)(COc1ccc(CSC2NC(=O)CC2=O)cc1)c1ccccc1` (configuration not stated) came in with a melting point of 107 to 108 °C.

`Cc1ccc(F)c2c1N(C(c1ccccc1)c1ccccc1)C(=O)C21COc2cc3c(cc21)CCO3` (configuration not stated) had a melting point of 81 to 82 °C.

For the compound `CC(O)c1cc(Cl)ccc1O` (configuration not stated), the melting point was found to be 98 °C.

The compound `O=C(Cc1ccc(OC2Cc3ccccc3C2)cc1)NC1(C(=O)O)Cc2ccc(-c3ccc(Cl)cc3)cc2C1` (configuration not stated) showed a melting point of 233 to 234 °C.

As for `COc1ccc(C(F)(F)C(F)(F)F)cc1C(C)=O`, the melting point was 47 °C.

Turning to `CC1Cc2c(N3CCC(NC(=O)OC(C)(C)C)C3)c(F)cc3c(=O)[nH]c(=O)n1c23` (configuration not stated), the melting point fell in the range of 203 to 205 °C.

`COc1ccccc1N1CCN(C(=O)Nc2cc3ccccc3nc2OC)CC1` came in with a melting point of 159 to 161 °C.

Compound `CCOC(=O)c1ccc(S(C)(=O)=O)nc1C(F)(F)F` showed a melting point of 70 to 72 °C.

`CC(=O)N1CCC(c2ccc(S(N)(=O)=O)cc2)CC1` returned a melting point of 196 to 197 °C.

Turning to `CC(C)C[C@H](NC1CCCCC1)C(=O)N1CCN(C(c2ccc(F)cc2)c2ccc(F)cc2)CC1`, the melting point was in the range of 45 to 54 °C.

Turning to `O=C(Nc1cccc(-c2ccnc3c(C(=O)c4cccs4)cnn23)c1)NC1CCCCC1`, the melting point lay within 233 to 236 °C.

As to `CC(=O)c1ccc(OC2CCOCC2)cc1O`, the melting point lay within 99 to 104 °C.
